Data on seven compounds can be found in PubChem BioAssay AID1963854 (Molecular Pharmacology Branch, DTP, NCI, 2024).

Several values for one entry are separate records, joined by “and”; a condition that tells them apart may be missing. Identical values can stand only once. Bounds are passed on as bounds.

This assay has as its system 186277-243-T-J2-PDC complex spheroid viability. Briefly: Anticancer human tumor 186277-243-T-J2-PDC patient-derived colon adenocarcinoma cell line growth inhibition [POLQ]. To be noted: for viability, T/C: stronger effect = lower value. In a few lines: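 Patient-derived tumour cells were co-cultured with HUVEC and mesenchymal stem cells as multicellular spheroids at 37 °C. They were treated with POLQ inhibitors (novobiocin, ART-558, RP6685) alone or combined with other agents. Top concentrations were at or near clinical Cmax (otherwise 10 microM; SN-38 at 1 microM), decreasing in half-log steps.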

Setting [1] is: curve of first compound, second compound 0.0316 µM.
[2] abbreviates: curve of first compound, second compound 0.1 µM.
[3] abbreviates: curve of first compound, second compound 0.316 µM.
[4] abbreviates: curve of first compound, second compound 1 µM.
The mark [5] stands for this setting: curve of first compound, second compound 3.16 µM.
The mark [6] stands for this setting: curve of first compound, second compound 10 µM.
[7] abbreviates: second compound 0.0316 µM, first compound 0.0316 µM.
The mark [8] stands for this setting: second compound 0.0316 µM, first compound 0.1 µM.
Where [9] appears, read: second compound 0.0316 µM, first compound 0.316 µM.
[10] abbreviates: second compound 0.0316 µM, first compound 1 µM.
Where [11] appears, read: second compound 0.0316 µM, first compound 3.16 µM.
Where [12] appears, read: second compound 0.0316 µM, first compound 10 µM.
The mark [13] stands for this setting: second compound 0.1 µM, first compound 0.0316 µM.
The mark [14] stands for this setting: second compound 0.1 µM, first compound 0.1 µM.
The mark [15] stands for this setting: second compound 0.1 µM, first compound 0.316 µM.
Setting [16] is: second compound 0.1 µM, first compound 1 µM.
Where [17] appears, read: second compound 0.1 µM, first compound 3.16 µM.
Where [18] appears, read: second compound 0.1 µM, first compound 10 µM.
Where [19] appears, read: second compound 0.316 µM, first compound 0.0316 µM.
The mark [20] stands for this setting: second compound 0.316 µM, first compound 0.1 µM.
The mark [21] stands for this setting: second compound 0.316 µM, first compound 0.316 µM.
Setting [22] is: second compound 0.316 µM, first compound 1 µM.
Setting [23] is: second compound 0.316 µM, first compound 3.16 µM.
[24] abbreviates: second compound 0.316 µM, first compound 10 µM.
[25] abbreviates: second compound 1 µM, first compound 0.0316 µM.
Setting [26] is: second compound 1 µM, first compound 0.1 µM.
Setting [27] is: second compound 1 µM, first compound 0.316 µM.
The mark [28] stands for this setting: second compound 1 µM, first compound 1 µM.
Where [29] appears, read: second compound 1 µM, first compound 3.16 µM.
Setting [30] is: second compound 1 µM, first compound 10 µM.
Setting [31] is: second compound 3.16 µM, first compound 0.0316 µM.
The mark [32] stands for this setting: second compound 3.16 µM, first compound 0.1 µM.
Setting [33] is: second compound 3.16 µM, first compound 0.316 µM.
Setting [34] is: second compound 3.16 µM, first compound 1 µM.
Setting [35] is: second compound 3.16 µM, first compound 3.16 µM.
[36] abbreviates: second compound 3.16 µM, first compound 10 µM.
[37] abbreviates: second compound 10 µM, first compound 0.0316 µM.
Where [38] appears, read: second compound 10 µM, first compound 0.1 µM.
Where [39] appears, read: second compound 10 µM, first compound 0.316 µM.
The mark [40] stands for this setting: second compound 10 µM, first compound 1 µM.
[41] abbreviates: second compound 10 µM, first compound 3.16 µM.
The mark [42] stands for this setting: second compound 10 µM, first compound 10 µM.
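Also: spheroids exposed to compounds for seven days.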
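For viability, T/C in this document: 100% = DMSO vehicle control viability.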

For `CC1COCCN1c1cc(C2(S(C)(=N)=O)CC2)nc(-c2ccnc3[nH]ccc23)n1` (stereo not given) + Nc1ccc(C#CCN(C(=O)Cc2ncc(C(F)(F)F)cc2C(F)(F)F)c2ccc(F)cc2)nn1, the IC50 (usually the midpoint of a concentration-inhibition curve) came to 1810 nM under setting [1]; 1790 nM under setting [2]; 1890 nM under setting [3]; 1780 nM under setting [4]; 1660 nM under setting [5]; 1640 nM under setting [6]. Further, the viability, T/C (in general, the ratio of treated to control) is 103% under setting [7]; 96.5% under setting [8]; 102% under setting [9]; 88.1% under setting [10]; 14.1% under setting [11]; 9.47% under setting [12]. Further, the viability, T/C by setting is: under setting [13], 97.2%; under setting [14], 90.5%; under setting [15], 93%; under setting [16], 85.9%; under setting [17], 14.8%; under setting [18], 10.2%. The viability, T/C is 109% under setting [19]; 102% under setting [20]; 110% under setting [21]; 93.6% under setting [22]; 14.8% under setting [23]; 10.7% under setting [24]. Also, the viability, T/C is 99.4% under setting [25]; 105% under setting [26]; 98.8% under setting [27]; 84.8% under setting [28]; 15.2% under setting [29]; 8.83% under setting [30]. The viability, T/C is, setting by setting: under setting [31], 109%; under setting [32], 104%; under setting [33], 118%; under setting [34], 78.7%; under setting [35], 15%; under setting [36], 8.91%. In addition, the viability, T/C is 105% under setting [37]; 94.5% under setting [38]; 97.6% under setting [39]; 77.1% under setting [40]; 14.3% under setting [41]; 8.26% under setting [42].
Consider `CC(C)n1c(=O)n(C)c2cnc3cc(F)c(-c4ccc(OCCCN5CCCCC5)nc4)cc3c21`, for which the viability, T/C by setting is: (compound 0.0316 µM) 86.3% and 111% and 107%; (compound 0.1 µM) 104% and 91.8% and 97.7%; (compound 0.316 µM) 89.3% and 95.6% and 91.6%; (compound 1 µM) 100% and 98.3% and 88.6%; (compound 3.16 µM) 100% and 98.2% and 98.4%; (compound 10 µM) 86% and 92.2% and 96.9%. The IC50 (curve of compound) was more than 10000 nM.
As for `CC[C@@]1(O)C(=O)OCc2c1cc1n(c2=O)Cc2cc3c(CN(C)C)c(O)ccc3nc2-1` + Cc1cccc(N(C)C(=O)C2C(O)CCN2c2nc(C)cc(C(F)(F)F)c2C#N)c1, the IC50 amounted to 93.3 nM under setting [1]; 98.4 nM under setting [2]; 93.6 nM under setting [3]; 86 nM under setting [4]; 84.6 nM under setting [5]; 61.6 nM under setting [6]. For the same compound, the viability, T/C is 112% (second compound 0.0316 µM, first compound 0.000316 µM); 83.4% (second compound 0.0316 µM, first compound 0.001 µM); 90.6% (second compound 0.0316 µM, first compound 0.00316 µM); 104% (second compound 0.0316 µM, first compound 0.01 µM); 67% under setting [7]; 48.9% under setting [8]. Also, the viability, T/C (second compound 0.1 µM, first compound 0.000316 µM) is 102%; the viability, T/C (second compound 0.1 µM, first compound 0.001 µM) was 96.7%; the viability, T/C (second compound 0.1 µM, first compound 0.00316 µM) is 96%; the viability, T/C (second compound 0.1 µM, first compound 0.01 µM) is 103%; the viability, T/C under setting [13] was 74.8%; the viability, T/C under setting [14] is 49.6%. In addition, the viability, T/C runs as follows: (second compound 0.316 µM, first compound 0.000316 µM) 83.1%; (second compound 0.316 µM, first compound 0.001 µM) 106%; (second compound 0.316 µM, first compound 0.00316 µM) 99.4%; (second compound 0.316 µM, first compound 0.01 µM) 118%; under setting [19], 71.7%; under setting [20], 48.7%. The viability, T/C is, setting by setting: (second compound 1 µM, first compound 0.000316 µM) 105%; (second compound 1 µM, first compound 0.001 µM) 96.9%; (second compound 1 µM, first compound 0.00316 µM) 96.7%; (second compound 1 µM, first compound 0.01 µM) 114%; under setting [25], 74%; under setting [26], 46.4%. For the same compound, the viability, T/C was 102% (second compound 3.16 µM, first compound 0.000316 µM); 100% (second compound 3.16 µM, first compound 0.001 µM); 96.2% (second compound 3.16 µM, first compound 0.00316 µM); 115% (second compound 3.16 µM, first compound 0.01 µM); 73.9% under setting [31]; 45.9% under setting [32]. The viability, T/C is, setting by setting: (second compound 10 µM, first compound 0.000316 µM) 115%; (second compound 10 µM, first compound 0.001 µM) 96.2%; (second compound 10 µM, first compound 0.00316 µM) 104%; (second compound 10 µM, first compound 0.01 µM) 87.5%; under setting [37], 59.8%; under setting [38], 42.6%.
Consider `Cc1cccc(N(C)C(=O)C2C(O)CCN2c2nc(C)cc(C(F)(F)F)c2C#N)c1` (stereo not given), for which the viability, T/C was 107% [middle of 13 runs] (compound 0.0316 µM); 102% [middle of 13 runs] (compound 0.1 µM); 99.1% [middle of 13 runs] (compound 0.316 µM); 97.2% [middle of 13 runs] (compound 1 µM); 95.9% [middle of 13 runs] (compound 3.16 µM); 92.7% [middle of 13 runs] (compound 10 µM). Besides, the IC50 is, setting by setting: (compound alone, run of 10/31/2023) more than 10000 nM; (compound alone, run of 11/06/2023) more than 10000 nM.
On to `CC1COCCN1c1cc(-c2ccnn2C)c2ccnc(-c3ccn[nH]3)c2n1` (stereo not given) + Nc1ccc(C#CCN(C(=O)Cc2ncc(C(F)(F)F)cc2C(F)(F)F)c2ccc(F)cc2)nn1, for which the IC50 is, setting by setting: under setting [1], 74 nM; under setting [2], 75.2 nM; under setting [3], 76.3 nM; under setting [4], 76.4 nM; under setting [5], 75.8 nM; under setting [6], 71.9 nM. Besides, the viability, T/C under setting [7] was 113%; the viability, T/C under setting [8] is 27.5%; the viability, T/C under setting [9] is 10.3%; the viability, T/C under setting [10] was 7.67%; the viability, T/C under setting [11] is 6.65%; the viability, T/C under setting [12] is 7.86%. The viability, T/C is 115% under setting [13]; 28.8% under setting [14]; 11% under setting [15]; 7.38% under setting [16]; 6.86% under setting [17]; 9.94% under setting [18]. Also, the viability, T/C by setting is: under setting [19], 126%; under setting [20], 26.8%; under setting [21], 9.95%; under setting [22], 7.12%; under setting [23], 6.81%; under setting [24], 9.08%. The viability, T/C was 124% under setting [25]; 27.5% under setting [26]; 9.34% under setting [27]; 7.54% under setting [28]; 6.88% under setting [29]; 9.31% under setting [30]. The viability, T/C is, setting by setting: under setting [31], 123%; under setting [32], 26.7%; under setting [33], 9.31%; under setting [34], 6.61%; under setting [35], 8.2%; under setting [36], 7.84%. The viability, T/C runs as follows: under setting [37], 118%; under setting [38], 22.5%; under setting [39], 9.8%; under setting [40], 7.22%; under setting [41], 6.51%; under setting [42], 7.63%.
As to `CCc1cc2c(N3CCc4c(cc(Cn5ccnc5)cc4-c4cn(C)nc4C(F)(F)F)C3=O)ccnc2c(OC)n1`, the viability, T/C by setting is: (compound 0.0316 µM) 103% and 94.2% and 101%; (compound 0.1 µM) 91.9% and 87.2% and 87.1%; (compound 0.316 µM) 88.2% and 90.2% and 95.8%; (compound 1 µM) 84.1% and 101% and 107%; (compound 3.16 µM) 87.8% and 103% and 101%; (compound 10 µM) 83.4% and 104% and 91.2%. Further, the IC50 (curve of compound) is more than 10000 nM.
As for `O=C(c1cc(Cc2n[nH]c(=O)c3ccccc23)ccc1F)N1CCN(C(=O)C2CC2)CC1`, the viability, T/C runs as follows: (compound 0.0316 µM) 92.4% and 106% and 120%; (compound 0.1 µM) 98.8% and 100% and 84.5%; (compound 0.316 µM) 103% and 102% and 101%; (compound 1 µM) 107% and 106% and 104%; (compound 3.16 µM) 110% and 111% and 128%; (compound 10 µM) 79.3% and 62% and 111%. For the same compound, under “curve of compound”, the IC50 was more than 10000 nM.
